# In patent EP0666077A1, “ANTI-MRSA COMPOSITION” (MEIJI SEIKA KABUSHIKI KAISHA, priority 1993, dated 1995):
# Tests used:
# S. aureus (MRSA) -400 = test: Anti-bacterial activity test 1: minimum growth inhibiting concentration (MIC); assay type: cell-based; conditions: Staphylococcus aureus, strain -400 (PRC series), read-out: Anti-bacterial activity against MRSA MIC
# Experimental: (§1) Minimum growth inhibiting concentration (MIC) of the compound represented by the general formula (I) was determined against some typical MRSA strains.
# S. aureus (MRSA) -385 = test: as above; assay type: cell-based; conditions: Staphylococcus aureus, strain -385 (PRC series), read-out: Anti-bacterial activity against MRSA MIC
# Experimental: as §1
# S. aureus (MRSA) -390 = test: as above; assay type: cell-based; conditions: Staphylococcus aureus, strain -390 (PRC series), read-out: Anti-bacterial activity against MRSA MIC
# Experimental: as §1
# S. aureus (MRSA) -395 = test: as above; assay type: cell-based; conditions: Staphylococcus aureus, strain -395 (PRC series), read-out: Anti-bacterial activity against MRSA MIC
# Experimental: as §1
# S. aureus (MRSA) PRC-376 = test: as above; assay type: cell-based; conditions: Staphylococcus aureus, strain PRC-376, read-out: Anti-bacterial activity against MRSA MIC
# Experimental: as §1
# S. aureus (MRSA) -389 = test: as above; assay type: cell-based; conditions: Staphylococcus aureus, strain -389 (PRC series), read-out: Anti-bacterial activity against MRSA MIC
# Experimental: as §1
# S. aureus (MRSA) -381 = test: as above; assay type: cell-based; conditions: Staphylococcus aureus, strain -381 (PRC series), read-out: Anti-bacterial activity against MRSA MIC
# Experimental: as §1
# [1] = tested on: TY-5548, higher resistant bacterium; test: Anti-bacterial activity test 5: viable cell count on paint film; assay type: cell-based, Staphylococcus aureus; conditions: paint film with 0.1% of compound
# Source text: The compound of the general formula (I) was blended with a paint on the assumption that the paint is used around the medical facilities like in the case of Anti-bacterial activity test 3.
# With an oil paint (manufactured by Shinto Toryo) 0.1% of the compound of the general formula (I) was mixed, and an appropriate dilution with thinner was spread over a stainless steel plate having a size of 3 cm x 3 cm and air-dried. The sample on which the film had been formed was sterilized with an alcohol and dried. The sample plate was placed in a glass dish, inoculated with 200 µl of the inoculation medium in Anti-bacterial activity test 3 (TY-5548, higher resistant bacterium) over the surface of the film and incubated at 37°C for 18 hours. After the incubation, 20 ml of a sterile physiological saline buffer was added to the medium to disperse the viable cells into the medium, and then the viable cells on the test piece were calculated in the same manner as in Anti-bacterial activity test 2.
# [2] = tested on: methicillin resistant Staphylococcus aureus (TY-5548, higher resistant bacterium); test: Anti-bacterial activity test 4: propagation under cup with dust adsorbing oil on agar plate; assay type: cell-based; conditions: dust adsorbing oil incorporated with 0.1% of compound; 100 µl in cup; 4°C overnight, then 37°C for 24 hours
# Experimental: Anti-MRSA activity was afforded to a dust adsorbing oil for a dust control mop as described below.
# Only non-volatile ingredients were recovered from a dust adsorbing oil for a mop by spraying (manufactured by Yamazaki Sangyo), and incorporated with 0.1% of Compound (V).
# A 200 µl of a suspension containing methicillin resistant Staphylococcus aureus (TY-5548, higher resistant bacterium) in a level of 1 x 10⁵ - 10⁴ cells/ml was smeared on a plate count agar, on which stainless steel cups having a diameter of 12 mm were placed to add 100 µl of the oil solution prepared above. The plate thus having inoculated the bacterium was left standing at 4°C overnight and then cultured at 37°C for 24 hours. The propagation of the bacterium under the cup was evaluated.
# [3] = tested on: methicillin (DMPPC) resistant Staphylococcus aureus TY-5548; test: Anti-bacterial activity test 2: viable cell count on processed cotton cloth; assay type: cell-based; conditions: stated for the test as a whole (TY-5548 and TY-5552)
# Experimental: A cotton cloth was subjected to anti-bacterial processing with the compound of the general formula (I). The processing was carried out by applying a solution containing 0.05% of the compound of the general formula (I) and 1% of an organic silicone (fiber finish, Miki Riken) on the cotton cloth with the padding method. A cotton cloth (30 cm x 40 cm) was padded so that the pick-up was 70%, dried with hot air at 110°C for 3 minutes and further cured at 170°C for 1 minute. The anti-bacterial effect of the cotton cloth subjected to the anti-bacterial processing was evaluated with methicillin (DMPPC) resistant Staphylococcus aureus by the following method. The strains were selected on the basis of their resistances, and TY-5548 was selected as a higher resistant strain and TY-5552 as a lower resistant strain.
# A 0.2 g sample of the cotton cloth was weighed, placed in a screw capped 30 ml vial and sterilized under pressure. The test strains had been pre-cultured and diluted with nutrient broth for inoculation to 5 - 30 x 10⁵ cells/ml. This culture medium was uniformly inoculated at an amount of 200 µl with a micropipette to the sample cloth, which was then incubated in an incubator at 37°C for 18 hours. […] The colonies grown were counted to calculate the viable cells in the sample piece.
SMILES,MIC (S. aureus (MRSA) -400),MIC (S. aureus (MRSA) -385),MIC (S. aureus (MRSA) -390),MIC (S. aureus (MRSA) -395),MIC (S. aureus (MRSA) PRC-376),MIC (S. aureus (MRSA) -389),MIC (S. aureus (MRSA) -381),cell reducing rate of the inoculated cells [1],propagation of the bacterium under the cup [2],cell reducing rate of the inoculated cells [3]
"Clc1ccc(COC(Cn2ccnc2)c2ccccc2Cl)cc1 (centres unmarked) [o-Cl, H, p-Cl, H, 1-[2-(4-chlorobenzyloxy)-2-(2-chlorophenyl)-ethyl]imidazole]",12.5 µg/mL,25 µg/mL,25 µg/mL,25 µg/mL,25 µg/mL,25 µg/mL,12.5 µg/mL,≥ 99.9%,no propagation was observed,≥ 99.9%
"Clc1ccccc1C(Cn1ccnc1)OCc1ccccc1 (centres unmarked) [o-Cl, H, H, H, 1-[2-benzyloxy-2-(2-chlorophenyl)-ethyl]imidazole]",50 µg/mL,100 µg/mL,100 µg/mL,100 µg/mL,100 µg/mL,100 µg/mL,50 µg/mL,–,–,–

# More lines, in order of falling MIC (S. aureus (MRSA) -400), values ahead:
MIC (S. aureus (MRSA) -400),MIC (S. aureus (MRSA) -385),MIC (S. aureus (MRSA) -390),MIC (S. aureus (MRSA) -395),MIC (S. aureus (MRSA) PRC-376),MIC (S. aureus (MRSA) -389),MIC (S. aureus (MRSA) -381),SMILES,cell reducing rate of the inoculated cells [1],propagation of the bacterium under the cup [2],cell reducing rate of the inoculated cells [3]
25 µg/mL,50 µg/mL,50 µg/mL,50 µg/mL,50 µg/mL,50 µg/mL,25 µg/mL,"Clc1ccc(C(Cn2ccnc2)OCc2ccccc2Cl)cc1 (centres unmarked) [p-Cl, H, o-Cl, H, 1-[2-(2-chlorobenzyloxy)-2-(4-chlorophenyl)-ethyl]imidazole]",–,–,–
25 µg/mL,50 µg/mL,50 µg/mL,50 µg/mL,50 µg/mL,50 µg/mL,25 µg/mL,"Clc1ccc(COC(Cn2ccnc2)c2ccc(Cl)cc2)cc1 (centres unmarked) [p-Cl, H, p-Cl, H, 1-[2-(4-chlorobenzyloxy)-2-(4-chlorophenyl)-ethyl]imidazole]",–,–,–
25 µg/mL,25 µg/mL,25 µg/mL,25 µg/mL,25 µg/mL,50 µg/mL,25 µg/mL,"Clc1ccccc1COC(Cn1ccnc1)c1ccccc1Cl (centres unmarked) [o-Cl, H, o-Cl, H, 1-[2-(2-chlorobenzyloxy)-2-(2-chlorophenyl)-ethyl]imidazole]",–,–,–
